# Measurements: patent US20250222082A1, “PROTEIN AND PEPTIDE VACCINES TARGETING METHANOGENS” (Arkea Bio Corp., priority 2024, published 2025)
# Where two headings read alike, the source gives them in different places.
# Tests used:
# [1] = buffer, 24 h
# Method: (§1) The solution was then placed in an ultrasonic bath for ˜4 hr and then allowed to equilibrate over 24 h.
# [2] = system: Mbb. ruminantium, Ms. mazei, and Mm. mobile; details: cited from earlier work
# [3] = Adsorbent study: reduction of 3NOP concentration in solution (HPLC 230 nm); details: 0.2 g of adsorbent in 10 mL of 1% 3NOP/H2O; 24 h; control 8.258 mM
# Method: as §1
# [4] = 3NOP volatility (mass loss in open vial); format: physicochemical; details: 500 mg in 5 dram vial open to air, ˜18-24 C, 15-30% RH, 6 days
# Method: 3NOP Volatility: 500 mg of 3NOP in a 5 dram vial was left open to air at ˜18-24 C at 15-30% RH over the course of 6 days. Average mass loss is ˜0.25% per day.
# [5] = 3NOP pH and temperature stability (HPLC); format: physicochemical; details: 1-month time period, 4-30 C, pH 4-10
# Description: 3NOP pH and Temperature Stability: Confirmed via HPLC over a 1-month time period at temperature between 4-30 C and pH 4-10.
# [6] = system: methane production; details: cited from earlier work
compound,measurement,setting,value
N=C(N)NCCC[C@H](N)C(=O)O [Arginine],3NOP concentration remaining in solution,[1]; 50 mg/mL,19.782 mM
"O=S(=O)(O)CCCBr [BPS, 3-bromopropanesulfonate]",sensitivity of methanogens in pure cultures,"[2]; up to 250 μmol/L, all three species",resistant
O=C([O-])CC(O)(CC(=O)[O-])C(=O)[O-].[Bi+3] [Bismuth Citrate],3NOP concentration remaining in solution,[3],8.072 mM
O=S(=O)([O-])[O-].O=S(=O)([O-])[O-].O=S(=O)([O-])[O-].[Bi+3].[Bi+3] [Bismuth Sulfate],3NOP concentration remaining in solution,[3],8.079 mM
O=S(=O)([O-])[O-].[Cu+2] [Copper Sulfate],3NOP concentration remaining in solution,[3],7.814 mM
NC(=O)CC[C@H](N)C(=O)O [Glutamine],3NOP concentration remaining in solution,[1]; 20 mg/mL,7.588 mM
"O=[N+]([O-])OCCCO [Group 3NOP, 3-Nitrooxypropanol]",3NOP Volatility: average mass loss,[4],~0.25 % per day
same,3NOP pH and Temperature Stability,[5],Confirmed
same,maximum methane suppression amount,[6]; 60 mg/kg of feed dry matter,"26%/day (Melgar et al., 2020)"
NCCCC[C@H](N)C(=O)O [Lysine],3NOP concentration remaining in solution,[1]; 50 mg/mL,18.583 mM
O=[N+]([O-])O [Nitrate],maximum methane suppression amount,[6]; 5 mM,"5 mM; 43.26% Lin rt al., 2017)"
same,maximum methane suppression amount,[6]; 5 mmol/L,5 mmol/L; 32.92%
same,maximum methane suppression amount,[6]; 20 mg/g dry matter,20 mg/g dry matter; 21%
"O=c1[nH]c(=O)c2nccnc2[nH]1 [lumazin, 2,4-pteridinedione]","CH4 production by Mbb. ruminantium, Ms. mazei, and Mm. mobile",[2]; dose-dependent from 0.06 to 0.24 mmol/L,significantly decreased
Cyclodextrin,3NOP concentration remaining in solution,[3],7.676 mM
